These results are taken from article PMC10762078, “Role of UPF1-LIN28A interaction during early differentiation of pluripotent stem cells” (Nature Communications, 2024).

For assay [1], the system named is nonsense-mediated mRNA decay (NMD). The experiment in a line: NMD reporter mRNA by RT-qPCR in UPF1-depleted HeLa cells with FLAG-LIN28A and CPP-peptides (Supplementary Fig. 5d). The conditions noted are these: siUPF1 + FLAG-LIN28A, 2 μM, n = 3. The assay is classed as cell-based. The procedure: For CPP-conjugated peptide delivery, HeLa, 293T, and PA-1 cells were incubated with CPP-conjugated peptides or CPP-FITC at 2 μM in DMEM with 10% FBS for 12 h a day before cell harvest. hPSCs were treated with CPP-conjugated peptides at 10 μM in mTeSR Plus Medium, and the peptide-containing medium was changed every day over 10 days. The ROCK inhibitor (Tocris Bioscience, Y-27632) treated-hPSCs were dissociated into single cells using Accutase (Merck, SCR005) and differentiated into ectoderm, mesoderm, and endoderm using the STEMdiff Trilineage Differentiation Kit ([…] Technologies, 05230) following the manufacturer’s protocol. Differentiated cells treated with CPP-conjugated peptides were analysed at 0, 3, and 5 days for ectoderm and endoderm, and at 0, 3, and 4 days for mesoderm. […]
cDNA was synthesised using RevertAid Reverse Transcriptase (Thermo Fisher Scientific, EP0441) with synthesised random hexamer (Macrogen) for total RNA or stem-loop primers for miRNA. For RT-qPCR reactions, the SensiFAST SYBR No-ROX kit (Meridian Bioscience) was used according to the manufacturer’s protocol. All data analysis and visualisation were conducted using R 3.6.1 [www.r-project.org] or GraphPad Prism 10. RT primers for miRNA and RT-qPCR primer sequences are provided in Supplementary Data 6. […]
(In general: In qPCR the cycle at which signal appears reflects the starting amount.)

In assay [2] the test system is lineage markers in CHA15 cells. The experiment in a line: RNA-seq of CHA15 cells during ectodermal, mesodermal and endodermal differentiation with CPP-peptides (Fig. 7a). The format is cell-based, Homo sapiens. The conditions noted are these: CHA15, 5 days. Here is the method:
For CPP-conjugated peptide delivery, HeLa, 293T, and PA-1 cells were incubated with CPP-conjugated peptides or CPP-FITC at 2 μM in DMEM with 10% FBS for 12 h a day before cell harvest. hPSCs were treated with CPP-conjugated peptides at 10 μM in mTeSR Plus Medium, and the peptide-containing medium was changed every day over 10 days. The ROCK inhibitor (Tocris Bioscience, Y-27632) treated-hPSCs were dissociated into single cells using Accutase (Merck, SCR005) and differentiated into ectoderm, mesoderm, and endoderm using the STEMdiff Trilineage Differentiation Kit ([…] Technologies, 05230) following the manufacturer’s protocol. Differentiated cells treated with CPP-conjugated peptides were analysed at 0, 3, and 5 days for ectoderm and endoderm, and at 0, 3, and 4 days for mesoderm.
Total RNA concentration was calculated using Quant-IT RiboGreen (Invitrogen, R11490). […] The libraries were quantified using the KAPA Library Quantification Kits for Illumina Sequencing platforms according to the qPCR Quantification Protocol Guide (KAPA BIOSYSTEMS, KR0405) and qualified using the TapeStation D1000 ScreenTape (Agilent). […]
We pre-processed the raw reads from the sequencer to remove low-quality reads and adapter sequences before analysis and aligned the processed reads to Homo sapiens (GRCh37) using HISAT v2.1.0[52]. […]

For assay [3], the system named is nonsense-mediated mRNA decay (NMD). Description: NMD reporter (Gl, GPx1) mRNA by RT-qPCR in LIN28A-expressing HeLa cells with CPP-peptides (Fig. 5c). The conditions noted are these: FLAG control (no LIN28A) HeLa, CPP-peptide. The format is cell-based.

“KKKWCRKKKSSADEKRYRALKRTAERELLMNA [CPP-P8, CPP conjugated to P8]”: the “effect on NMD in absence of UPF1” value in assay [1] was “did not affect NMD in the absence of LIN28A or UPF1”. Moreover, the “ectodermal marker levels” value in assay [2] was “overall reduced the levels of its marker, in contrast to mesodermal and endodermal differentiation”.
With “N-QKLDQKELQLEPM-C [P1, reference compound]”, the “relative GPx1 mRNA level” value in assay [3] (normalised to MUP, replicate set2) is given as 1.035. For the same substance, the “relative Gl mRNA level” value in assay [3] (normalised to MUP, replicate set3) stood at 1.014. In assay [3] (mean in t-test output, n = 3), the “GPx1 mRNA, mean” value is reported as 0.2656 and the “Gl mRNA, mean” value came to 0.4223.
